The values that follow come from publication PMC11221653, “Isolation and characterization of plant-derived exosome-like nanoparticles from Carica papaya L. fruit and their potential as anti-inflammatory agent” (PLOS ONE, 2024).

Experiment [1] relates to NO production in LPS-induced RAW 264.7 cells. The experiment is described as follows: Nitric oxide assay (Griess reagent, nitrite). Format: cell-based. The conditions noted are these: PDENs 5, 10, 20 μg/mL or dexamethasone 1 μg/ml for 24 h, then LPS 50 ng/mL for 6 h. The protocol: RAW 264.7 cells were cultured in 96-well plates, with a density of 1 × 10^4 cells per well and incubated for 24 hours. Following this, they were exposed to various concentrations of PDENs (0, 5, 10, and 20 μg/ml) and dexamethasone (1 μg/ml) (Sigma-Aldrich, USA) for 24 hours. Thereafter, the cells were treated with LPS (50 ng/mL) (Sigma-Aldrich, USA) for an additional 6 hours. To measure the nitric oxide in the culture media, we utilized the Protocol from Griess Reagent Kit for Nitrite Determination (G-7921) (Thermo Fisher Scientific, USA). Briefly, 50 microliters of cell culture medium from each treatment were mixed with Griess reagent (1:1) and incubated for 15 minutes in the dark. The samples were measured at a wavelength of 540 nm using a microplate reader Bio-Rad iMark.
Background: Nitrite, measured by Griess reagent, commonly stands in for NO production.

On the set-up of experiment [2]: method as in PMID 35494787. The conditions noted are these: concentration 17.5 μM; ref [87]; cited from earlier work.

For `C[C@@H]1C[C@H]2[C@@H]3CCC4=CC(=O)C=C[C@]4(C)[C@@]3(F)[C@@H](O)C[C@]2(C)[C@@]1(O)C(=O)CO` [dexamethasone], in experiment [1], the “NO production versus LPS-induced cells” value is “significantly reduce NO production”.
Consider `Cc1cc(C(C)(C)C)c(O)c(C(C)(C)C)c1` [butylated hydroxytoluene], for which the radical scavenging activity in experiment [2] is on record as 58.4%.
With `CC1=C(O)C(=O)C(O)CO1` (stereo not drawn) [DDMP, 2,3-dihydro-3,5-dihydroxy-6-methyl-4H-pyran-4-one], the radical scavenging activity in experiment [2] was 81.1%.
